Values joined by “and” are separate entries in the source; they are usually repeats but may differ in a detail not shown here. Equal values may be shown once. Read-outs that look alike come from different tables or passages of the source.
What was measured:
[1] = cited from earlier work
[2] = Literature: pharmacokinetics of dyphylline and related derivatives in humans; conditions: human, in vivo, from Simons et al., read-out: Total Vd
From the text: Simons, et al., Allergy and Clin. Immunol. (1975) report the pharmacokinetics of dyphylline from seven different doses in seven patients and treat dyphylline as a one-compartment drug which means that Vc would be equal to Vd total since only one compartment is involved. This is, however, inconsistent with the data reported in the above-mentioned articles by Lawyer et al. Also, the data of Simons et al. (1975) can be used to generate the following lists wherein the estimated total volume of distribution of dyphylline (total Vd) is calculated from data presented by using the equation Vd=Dose/(Kel)(AUC): […]

[3] = as above; conditions: human, in vivo; for Vd/F: po, analysis of Gisclon oral data
[4] = Concomitant dyphylline and aminophylline in two horses: plasma concentration, blood pressure, pulse (Example 3); conditions: horse, plasma, iv, 20 mg/kg, dyphylline peak plasma concentration, 20 mg/kg bolus
Protocol: Two horses were administered dyphylline and aminophylline concomitantly.
The second horse was given a bolus injection of dyphylline (20 mg/kg as 100 mg/ml solution in D5W) over 15 seconds into the jugular vein. Aminophylline infusion (10 mg/kg dissolved in one liter of D5W) was started immediately and administered over 20 minutes.

[5] = cited from earlier work; remark: listed apart in the source
[6] = cited from earlier work; remark: listed apart in the source
[7] = cited from earlier work; remark: listed apart in the source
[8] = Dyphylline 20 min intravenous infusion in two healthy male subjects: pharmacokinetics, blood pressure, pulse (Example 2); type: in vivo, human; conditions: bolus injection
[9] = cited from earlier work; remark: listed apart in the source
[10] = Dyphylline intravenous infusion in rabbits: blood concentration, pharmacokinetics, toxicity (Example 1); type: in vivo, female New Zealand White rabbits
From the text: A high-pressure liquid chromatographic (HPLC) system consisted of a delivery pump (M-6000A, Waters Associates, Milford, Mass.), sample injection apparatus (Model U6K, Waters Associates, Milford, Mass.), 30-cm reverse phase column (μBondapak C18, Waters Associates, Milford, Mass.), UV detector (Model 440, Waters Associates, Milford, Mass.) with wavelength of 280 nm and a dual pen recorder (Soltec Co., Encino, Calif.) which were used at ambient temperature.
Both dyphylline and theophylline stock standard solutions were prepared to contain 10, 40, 80, 120, 150, 320 or 640 mg of each in 50 ml of distilled water. 20 μl of each was then added into 0.38 ml of rabbit blood to prepare working blood standard solutions.
The internal standard used was β-hydroxypropyl theophylline (Aldrich Chemical Co., Inc., Milwaukee, Wis.) in acetonitrile which was prepared in a 500 ml volumetric flask as a stock solution, and kept tightly sealed except during use throughout the experiment. Internal standard solution (0.4 ml) was added to an equal volume (0.4 ml) of sample to precipitate protein. After centrifuging for 10 minutes, the supernatant was injected into the HPLC. The HPLC operating conditions included a mobile phase composed of acetonitrile (6 percent V/V) in distilled water and a flow rate of 2.0 ml/min.
Typical log blood dyphylline concentration versus time plots, for each of the three rabbits following zero-order infusion of 250 mg over fifteen minutes are presented in FIG. 1. […] (1975). Parameters obtained from linear least square fitting of the terminal data to a one-compartment model appear in Table I. The fitted line of the data can be seen in FIG. 1.

clinical = type: in vivo; conditions: for Cmax: iv, 1000 mg, after 20-minute intravenous infusion of 1000 mg
Protocol: To confirm the data shown in Table XI, dyphylline, 1000 mg, was administered to twelve healthy male volunteers as a zero-order infusion (50 mg/min) or as three conventional tablets (2×400 mg, 1×200 mg).

[11] = in vivo
Protocol: One horse was administered acetyl promazine thiamyol sodium, quaifensin, and halothane to produce general anesthesia. Dyphylline (20 mg/kg) was given as an intravenous bolus injection in less than 15 seconds and aminophylline (10 mg/kg) was given as an infusion over about 20 minutes. Plasma and cerebral spinal fluid were collected and assayed by high pressure liquid chromatography for both dyphylline and theophylline.

[12] = Single and combined intravenous methyl xanthines in rabbits: heart rate, deaths, plasma concentrations (Example 6); type: in vivo, female rabbits; conditions: one rabbit each; normal about 220 bpm
Protocol: T 40 mg/kg of aminophylline infused at the rate of 0.21 ml/min over 30
T/D 40 mg/kg of aminophylline infused at the rate of 0.21 ml/min over 30
T/E 40 mg/kg of aminophylline infused at the rate of 0.21 ml/min over 30
T/P 40 mg/kg of aminophylline infused at the rate of 0.21 ml/min over 30

[13] = intravenous, per day per 70 kg person, Zuidema
[14] = rabbit, blood, iv, 250 mg, 250.0 mg/rabbit over 15 minutes, alone, rabbits 1-3, mean

Structure (SMILES): Cn1c(=O)c2c(ncn2CC(O)CO)n(C)c1=O (stereo not drawn) [dyphylline, dihydroxypropyl theophylline]
- water solubility [1]: high water solubility
- Vd ([2]; 10 mg/kg, 10 mg/kg alcoholic solution with glycerol-guaiacolate solution): 0.77 L/kg
- Vd ([2]; 10 mg/kg, 10 mg/kg alcoholic solution): 0.98 L/kg
- Vd ([2]; 10 mg/kg, 10 mg/kg aqueous): 0.93 L/kg
- Vd/F ([2]; im, 5 mg/kg, 5 mg/kg intramuscular): 0.58 L/kg
- Vd/F ([2]; im, 10 mg/kg, 10 mg/kg intramuscular): 0.8 L/kg
- Vd/F ([2]; po, 5 mg/kg, 5 mg/kg tablet): 0.58 L/kg
- Vd/F ([2]; po, 10 mg/kg, 10 mg/kg tablet): 0.72 L/kg
- Vd ([3]; from Simons et al., read-out: Vd, range over dosage forms): 0.58 to 0.98 L/kg
- Vd/F ([3]; 77.0 kg, complete bioavailability, read-out: central compartment volume): ~52 L
- Vd/F ([3]; 77.0 kg, complete bioavailability, read-out: total volume of distribution): ~67 L
- Vd/F ([3]; 84 percent bioavailability, read-out: Vc): ~0.6 L/kg
- Vd/F ([3]; 84 percent bioavailability, read-out: Vd): ~0.73 L/kg
- Vd/F ([3]; bioavailability 84 percent, read-out: central compartment volume): ~44 L
- Vd/F ([3]; bioavailability 84 percent, read-out: total volume of distribution): ~56 L
- Vd/F ([3]; total bioavailability, read-out: Vc): ~0.68 L/kg
- Vd/F ([3]; total bioavailability, read-out: Vd total): ~0.87 L/kg
- Cmax ([4]; first value, presumably first horse): 46 µg/mL
- Cmax ([4]; second value, presumably second horse): 88 µg/mL
- lowest therapeutic response toxic level in steady state ([5]; blood, calculated by Zuidema from data of Svedmyr): 90 µg/mL
- calculated probable dosage to produce 40 mcg/ml in blood [5, 13]: 13.7 gm
- calculated probable dosage to produce 90 mcg/ml in blood [5, 13]: 30.8 gm
- average volume of distribution ([6]; 25 mg/kg): 1.01 L/kg
- toxicity at 30 to 50 mcg/ml ([6]; rabbit, in vivo): not toxic
- pharmacokinetics at high dose ([7]; Poynor): may produce nonlinear pharmacokinetics
- concentration not toxic in dogs ([7]; dogs): 100 µg/mL
- half-time of clearance from the central compartment [8]: four to nine
- time post dosing to achieve plasma concentrations ([9]; Joos et al.): 90 min
- plasma concentration of dyphylline ([9]; combined with theophylline and proxyphylline (Bracher; Werdermann)): less than 3.0 mcg/ml
- plasma concentration, each drug ([9]; dyphylline and proxyphylline (Joos et al.), 90 min): about 13 mcg/ml
- Ccut, blood concentration at the time the infusion was stopped ([10]; 250.0 mg/rabbit zero-order infusion over 15 minutes, alone, rabbits 1-3, mean, 15 min): 81.82 µg/mL and 112.5 µg/mL and 91.70 µg/mL
- signs of toxicity ([10]; blood concentrations about 80 to 112 mcg/ml): did not exhibit any signs of toxicity
- half-life [10, 14]: 35.6 min
- k el [10, 14]: 0.000325 s⁻¹
- Vd ([10]; rabbit, blood, iv, 250 mg, 250.0 mg/rabbit over 15 minutes, alone, rabbits 1-3, mean, read-out: Vd1): 0.895 L/kg
- concentration at 0.25 h ([10]; rabbit, blood, iv, 250 mg, 250.0 mg/rabbit zero-order infusion over 15 minutes, alone, rabbits 1-3, mean, read-out: Ccut, blood concentration at the time the infusion was stopped): 80.8 µg/mL
- concentration at 0.25 h ([10]; rabbit, blood, iv, 250 mg, 15 minutes, three rabbits, read-out: blood concentration when the infusion was stopped): 80 to 112 µg/mL
- Vd ([10]; rabbit, blood, iv, 250 mg, Table I, read-out: average apparent volume of distribution of dyphylline administered alone): 0.82 L/kg
- drug related toxicities (clinical; human, in vivo): No subjects reported any drug related toxicities
- Cmax (clinical; human, plasma, read-out: Maximum plasma concentration, average): 30.1 µg/mL
- Cmax (clinical; human, plasma, read-out: Maximum plasma concentration, range): 18.4 to 46.8 µg/mL
- Vd (clinical; human, plasma, 1000 mg IV, twelve volunteers, standard deviation 0.08, read-out: average total volume of distribution, IV): 0.78 L/kg
- difference between predose and peak drug effects on blood pressure and heart rate (clinical; α=0.05 level): not statistically significant
- penetration into cerebral spinal fluid [11]: penetrate into cerebral spinal fluid
- heart rate, individual drug treatment [12]: 76 bpm

Reference: US4581359A, “Pharmacological treatments with N-7-substituted derivatives of theophylline” (priority 1984, dated 1986)
